Data as given in ChEMBL document CHEMBL3431459, “Roche carnitine palmitoyltransferase modulator screening data (supplementary data associated with the publication CHEMBL2216752)”.
Values after ≈ are worked out from the molar mass of the structure shown.

Key:
[1] = biological target: T1, Carnitine O-palmitoyltransferase 1, liver isoform (Rattus norvegicus, UniProt P32198); test: (§1) SUPPLEMENTARY: Inhibition of Carnitine palmitoyltransferase 1, liver isoform
T1 sequence (P32198 whole entry): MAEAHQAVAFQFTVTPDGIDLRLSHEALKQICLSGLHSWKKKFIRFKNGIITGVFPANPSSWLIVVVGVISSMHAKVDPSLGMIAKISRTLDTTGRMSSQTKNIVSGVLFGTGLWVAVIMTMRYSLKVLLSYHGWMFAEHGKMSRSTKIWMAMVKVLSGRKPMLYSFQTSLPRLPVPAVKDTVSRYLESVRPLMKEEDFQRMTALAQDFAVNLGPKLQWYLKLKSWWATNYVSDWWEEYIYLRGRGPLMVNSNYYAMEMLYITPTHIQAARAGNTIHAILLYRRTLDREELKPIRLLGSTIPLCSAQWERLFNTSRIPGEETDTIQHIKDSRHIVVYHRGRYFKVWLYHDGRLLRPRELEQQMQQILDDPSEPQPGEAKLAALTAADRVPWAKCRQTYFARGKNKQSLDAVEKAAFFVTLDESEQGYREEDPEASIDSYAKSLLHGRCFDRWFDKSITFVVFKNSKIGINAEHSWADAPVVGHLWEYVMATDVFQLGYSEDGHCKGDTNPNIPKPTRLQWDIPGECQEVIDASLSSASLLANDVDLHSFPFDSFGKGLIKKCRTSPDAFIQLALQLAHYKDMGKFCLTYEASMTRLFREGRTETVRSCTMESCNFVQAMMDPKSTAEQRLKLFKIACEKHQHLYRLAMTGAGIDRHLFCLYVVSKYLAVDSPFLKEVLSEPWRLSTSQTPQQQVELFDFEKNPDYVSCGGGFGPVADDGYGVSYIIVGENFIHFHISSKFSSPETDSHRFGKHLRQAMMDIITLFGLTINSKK

[2] = biological target: T2, Carnitine O-palmitoyltransferase 1, liver isoform (Homo sapiens, UniProt P50416); test: as §1
T2 sequence (P50416 whole entry): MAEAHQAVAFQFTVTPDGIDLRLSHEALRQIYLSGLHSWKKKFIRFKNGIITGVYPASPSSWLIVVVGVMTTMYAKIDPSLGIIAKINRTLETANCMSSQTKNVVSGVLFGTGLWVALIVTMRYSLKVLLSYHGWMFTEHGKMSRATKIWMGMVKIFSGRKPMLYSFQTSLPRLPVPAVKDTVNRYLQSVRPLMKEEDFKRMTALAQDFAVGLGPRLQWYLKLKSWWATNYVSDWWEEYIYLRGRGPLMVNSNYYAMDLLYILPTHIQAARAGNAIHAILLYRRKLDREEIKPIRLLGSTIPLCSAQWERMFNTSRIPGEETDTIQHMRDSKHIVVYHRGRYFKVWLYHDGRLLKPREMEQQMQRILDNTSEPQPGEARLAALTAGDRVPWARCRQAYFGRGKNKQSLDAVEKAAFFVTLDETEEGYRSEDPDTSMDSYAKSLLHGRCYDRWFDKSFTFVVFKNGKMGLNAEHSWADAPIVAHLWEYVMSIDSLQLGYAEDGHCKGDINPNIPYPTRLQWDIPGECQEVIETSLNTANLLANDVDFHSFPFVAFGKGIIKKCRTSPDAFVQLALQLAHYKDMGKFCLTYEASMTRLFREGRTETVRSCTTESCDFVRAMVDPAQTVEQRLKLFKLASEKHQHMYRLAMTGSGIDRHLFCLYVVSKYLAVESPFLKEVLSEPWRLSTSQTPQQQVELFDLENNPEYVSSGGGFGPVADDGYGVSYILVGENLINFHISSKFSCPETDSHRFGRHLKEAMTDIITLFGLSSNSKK

[3] = SUPPLEMENTARY: PAMPA permeability assay; assay type: physicochemical; conditions: read-out: Permeability
[4] = SUPPLEMENTARY: Lyophilisation Solubility Assay (LYSA); assay type: physicochemical; conditions: read-out: Kinetic_solubility
[5] = biological target: T3, Carnitine O-palmitoyltransferase 2, mitochondrial (Rattus norvegicus, UniProt P18886); test: (§2) SUPPLEMENTARY: Inhibition of Carnitine palmitoyltransferase 2
T3 sequence (P18886 whole entry): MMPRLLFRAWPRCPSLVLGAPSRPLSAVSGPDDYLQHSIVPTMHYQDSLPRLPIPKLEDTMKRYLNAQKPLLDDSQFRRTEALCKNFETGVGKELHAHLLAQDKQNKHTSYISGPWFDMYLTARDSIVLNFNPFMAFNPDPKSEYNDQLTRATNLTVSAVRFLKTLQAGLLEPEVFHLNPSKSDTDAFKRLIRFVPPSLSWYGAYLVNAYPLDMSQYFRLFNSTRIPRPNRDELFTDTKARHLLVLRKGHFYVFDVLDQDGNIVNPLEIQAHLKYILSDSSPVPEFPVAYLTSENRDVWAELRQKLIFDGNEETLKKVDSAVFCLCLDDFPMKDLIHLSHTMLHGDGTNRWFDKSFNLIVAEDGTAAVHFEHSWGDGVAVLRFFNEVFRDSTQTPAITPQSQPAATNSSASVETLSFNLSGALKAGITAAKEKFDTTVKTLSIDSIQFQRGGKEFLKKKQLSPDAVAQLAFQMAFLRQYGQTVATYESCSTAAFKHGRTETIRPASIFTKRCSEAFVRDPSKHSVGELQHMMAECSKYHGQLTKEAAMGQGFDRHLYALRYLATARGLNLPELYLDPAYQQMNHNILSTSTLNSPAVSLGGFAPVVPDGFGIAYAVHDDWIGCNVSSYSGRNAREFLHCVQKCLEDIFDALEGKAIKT

[6] = biological target: T4, Carnitine O-palmitoyltransferase 2, mitochondrial (Homo sapiens, UniProt P23786); test: as §2
T4 sequence (P23786 whole entry): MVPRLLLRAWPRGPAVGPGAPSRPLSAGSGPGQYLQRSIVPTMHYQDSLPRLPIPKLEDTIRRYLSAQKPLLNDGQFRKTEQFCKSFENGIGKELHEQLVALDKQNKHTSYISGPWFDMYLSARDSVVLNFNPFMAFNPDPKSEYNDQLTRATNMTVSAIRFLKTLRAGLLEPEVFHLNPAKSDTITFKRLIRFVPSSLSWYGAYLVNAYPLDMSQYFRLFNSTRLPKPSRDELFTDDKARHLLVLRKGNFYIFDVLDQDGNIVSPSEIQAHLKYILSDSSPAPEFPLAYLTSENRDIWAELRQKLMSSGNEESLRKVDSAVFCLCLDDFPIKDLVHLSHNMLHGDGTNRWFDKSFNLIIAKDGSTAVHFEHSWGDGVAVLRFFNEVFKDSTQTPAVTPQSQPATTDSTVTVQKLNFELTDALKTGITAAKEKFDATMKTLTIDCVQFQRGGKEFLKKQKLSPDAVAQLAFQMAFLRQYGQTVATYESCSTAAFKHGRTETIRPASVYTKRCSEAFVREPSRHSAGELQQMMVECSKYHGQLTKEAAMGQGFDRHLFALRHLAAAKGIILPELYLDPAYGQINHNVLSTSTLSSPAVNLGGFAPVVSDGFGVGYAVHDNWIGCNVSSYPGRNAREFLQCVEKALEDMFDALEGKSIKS

[7] = SUPPLEMENTARY: Lipophilicity (log D) Determination by high-throughput shake-flask; assay type: physicochemical; conditions: octanol/water
[8] = biological target: T5, Carnitine O-palmitoyltransferase 1, muscle isoform (Homo sapiens, UniProt Q92523); test: SUPPLEMENTARY: Inhibition of Carnitine palmitoyltransferase 1, muscle isoform; design: species or system Muscle tissue
T5 sequence (Q92523 whole entry): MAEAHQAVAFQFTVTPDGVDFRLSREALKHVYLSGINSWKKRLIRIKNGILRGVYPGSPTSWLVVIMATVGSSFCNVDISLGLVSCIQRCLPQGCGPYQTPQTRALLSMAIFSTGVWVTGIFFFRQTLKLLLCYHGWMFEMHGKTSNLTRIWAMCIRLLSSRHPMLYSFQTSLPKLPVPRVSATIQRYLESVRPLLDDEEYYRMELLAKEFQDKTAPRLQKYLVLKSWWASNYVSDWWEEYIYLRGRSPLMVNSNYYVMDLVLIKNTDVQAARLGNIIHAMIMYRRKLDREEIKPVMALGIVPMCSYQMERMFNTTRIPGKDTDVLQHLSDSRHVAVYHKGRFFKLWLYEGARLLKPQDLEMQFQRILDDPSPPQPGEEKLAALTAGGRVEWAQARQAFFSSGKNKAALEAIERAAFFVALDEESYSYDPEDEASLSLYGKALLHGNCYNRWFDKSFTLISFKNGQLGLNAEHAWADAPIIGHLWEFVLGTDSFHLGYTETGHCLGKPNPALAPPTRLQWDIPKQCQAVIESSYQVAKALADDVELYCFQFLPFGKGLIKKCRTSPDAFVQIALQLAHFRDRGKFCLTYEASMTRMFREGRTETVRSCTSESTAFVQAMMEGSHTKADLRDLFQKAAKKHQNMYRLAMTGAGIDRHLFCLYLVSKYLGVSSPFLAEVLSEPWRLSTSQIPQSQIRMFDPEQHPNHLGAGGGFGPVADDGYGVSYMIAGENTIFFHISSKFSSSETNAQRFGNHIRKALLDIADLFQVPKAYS

IC50 [1] [nM] | IC50 [2] [nM] | Papp [3] [×10⁻⁶ cm/s] | solubility kinetic [4] [µg/mL] | IC50 [5] [nM] | IC50 [6] [nM] | logD [7] | IC50 [8] [nM] | SMILES
237 | 270 | 4.38 | 4 (≈ 8.7 µM) | > 100000 | > 100000 | 3.31 | > 100000 | COc1ccc(Cl)cc1S(=O)(=O)N1CCOc2ncc(C(=O)Nc3ccccc3)cc21
79.1 | 75.7 | 2.83 | 3 (≈ 5.99 µM) | 2130 | 698 | 3.01 | 1420 | COc1ccc(Cl)cc1S(=O)(=O)N1C[C@H](C)c2ccc(C(=O)Nc3ccc(C(=O)O)cc3)cc21
28.9 | 36.7 | 2.86 | 6 (≈ 12 µM) | 1420 | 453 | 2.98 | 6780 | COc1ccc(Cl)cc1S(=O)(=O)N1C[C@@H](C)c2ccc(C(=O)Nc3ccc(C(=O)O)cc3)cc21
339 | 89.3 | 2.8 | 19 (≈ 46.9 µM) | > 100000 | > 100000 | 2.62 | > 100000 | O=C(COc1ccccc1)N1CCOC[C@@H]1c1nc(-c2ccc3[nH]cnc3c2)no1
169 | 328 | 0.74 | 47 (≈ 93.3 µM) | > 100000 | > 100000 | 0.2 | > 100000 | COc1ccc(Cl)cc1S(=O)(=O)N1CCOc2ncc(C(=O)Nc3ccc(C(=O)O)cc3)cc21
221 | 34.4 | 4.44 | 81 (≈ 213 µM) | 30200 | > 100000 | 2.62 | > 100000 | Nc1ccc(-c2noc([C@H]3CCCCN3C(=O)COc3ccccc3)n2)cn1
234 | 29.2 | 3.03 | 60 (≈ 149 µM) | 66800 | 15000 | 2.26 | 33100 | O=C(COc1ccccc1)N1CCCC[C@@H]1c1noc(-c2ccc3[nH]cnc3c2)n1
12.6 | 30 | 1.9 | 3 (≈ 5.44 µM) | > 100000 | > 100000 | 2.68 | > 100000 | COc1ccc(Cl)cc1S(=O)(=O)N1CCS(=O)(=O)c2ccc(C(=O)Nc3ccc(C(=O)O)cc3)cc21
84.5 | 40.8 | 1.26 | < 1 | > 100000 | > 100000 | > 3 | > 100000 | COc1ccc(Cl)cc1S(=O)(=O)N1CCOc2ccc(C(=O)Nc3ccccc3)cc21
96.8 | 88.5 | 1.81 | 3 (≈ 6.06 µM) | 28100 | 10800 | 2.38 | 6240 | COc1ccc(Cl)cc1CN1C(=O)OC(C)(C)c2ccc(C(=O)Nc3ccc(C(=O)O)cc3)cc21
59.7 | 58.7 | 1.93 | 150 (≈ 291 µM) | > 100000 | > 100000 | 1.17 | 1010 | COc1ccc(Cl)cc1CN1C(=O)OC(C)(C)c2ccc(C(=O)Nc3nc(CC(=O)O)cs3)cc21
71.4 | 111 | 3.5 | 26 (≈ 61.8 µM) | > 100000 | 8060 | 3 | > 100000 | CC(=O)Nc1cccc(-n2nnc([C@H]3CCCCN3C(=O)COc3ccccc3)n2)c1
308 | 99.3 | 2.98 | 127 (≈ 292 µM) | > 100000 | 29100 | 2.64 | > 100000 | CC(=O)NCc1cccc(-c2nc([C@H]3CCCCN3C(=O)COc3ccccc3)no2)c1
160 | 65.4 | 1.77 | 94 (≈ 200 µM) | > 100000 | 22800 | 2.44 | > 100000 | CS(=O)(=O)NCc1cccc(-c2nc([C@H]3CCCCN3C(=O)COc3ccccc3)no2)c1
